For data set [1], the system named is normal mammary epithelial cells MCF-10A. The data set is described as follows: MTT assay of growth and viability, MCF-10A. In kind it is cell-based. Conditions: escalating doses. Here is the method:
Three breast cancer cell lines (MDA-MB-231, T47D, and MDA-MB-435) and normal breast epithelial (MCF-10A) were treated with escalating doses of STAT3-Hel2A-2 (SEQ ID NO: 20). Cell proliferation and cell death were estimated by MTT assay.

In data set [2] the test system is normal mouse embryonic fibroblasts (MEFs). The data set is described as follows: Survival of normal mouse embryonic fibroblasts. Format: cell-based. Particulars: normal MEFs (data not shown). From the text: (§1) Furthermore, survival of normal mouse embryonic fibroblasts (MEFs) and STAT3-deficient MEFs was not affected by treatment with STAT3-Hel2A-2 (data not shown). […] This observation potentially provides a basis for an enhanced therapeutic ratio, based on differential inhibitor effects

The test system of a further data set is STAT3-deficient MEFs. The data set is described as follows: Survival of STAT3-deficient MEFs. Format: cell-based, mouse. Particulars: STAT3-deficient MEFs (data not shown).
Excerpt: as §1

`CCCC[C@H](NC(=O)[C@H](CCCNC(=N)N)NC(=O)[C@H](CCCNC(=N)N)NC(=O)[C@H](CC(N)=O)NC(=O)[C@@H]1CCCN1C(=O)[C@H](Cc1ccccc1)NC(=O)[C@H](Cc1c[nH]c2ccccc12)NC(=O)[C@@H](NC(=O)[C@H](CCCCN)NC(=O)[C@@H](NC(=O)[C@H](CCC(N)=O)NC(=O)[C@H](CCCNC(=N)N)NC(=O)[C@H](Cc1ccc(O)cc1)NC(=O)[C@H](CC(C)C)NC(=O)[C@H](CCCCN)NC(=O)[C@H](Cc1c[nH]cn1)NC(=O)[C@H](CC(C)C)NC(=O)[C@H](CCC(N)=O)NC(=O)[C@H](CCC(=O)O)NC(=O)[C@H](CC(C)C)NC(=O)[C@H](Cc1ccc(O)cc1)NC(=O)[C@H](CCCNC(=N)N)NC(=O)[C@@H](NC(=O)[C@H](CC(=O)O)NC(=O)[C@@H](N)CC(C)C)[C@@H](C)O)[C@@H](C)CC)[C@@H](C)CC)C(=O)N[C@@H](CCCCN)C(=O)N[C@@H](Cc1c[nH]c2ccccc12)C(=O)N[C@@H](CCCCN)C(=O)N[C@@H](CCCCN)C(N)=O` [Hel2A-2-Pen]: the “Growth and viability of normal cells” value in data set [1] is listed as “not altered significantly”. Also, the “Survival of normal cells” value in data set [2] was “not affected”. Also, the “Survival of STAT3-deficient cells” value in the data set on STAT3-deficient MEFs is “not affected”.

(Values after patent publication US9540427B2, “Peptide-based stat inhibitor” (The United States of America, as represented by the …, priority 2007, dated 2017).)
